Measurements reported in paper PMC12268434 (ACS Omega, 2025).

Tests used:
[1] = system: U-87 MG glioma cells; assay: CCK-8 cell viability assay, U-87 MG; type: cell-based, human; settings: U-87 MG glioma / glioblastoma cells
[2] = system: U-87 MG cells; assay: Flow cytometry; type: cell-based, human; settings: IC50 concentrations, 24 h

## COc1c(O)cc2c(c1OC)-c1ccc(O)cc1CC2 [compound 7, erianthridin]
[1]
  cytotoxic activity (in words): no cytotoxic activity

## COc1c(O)cc2ccc3cc(O)ccc3c2c1OC [compound 6, nudol]
[1]
  cytotoxic activity (in words): no cytotoxic activity

## COc1cccc2c1C(=O)c1c(O)c3c(c(O)c1C2=O)C[C@@](O)(C(=O)CO)C[C@@H]3O[C@H]1C[C@H](N)[C@H](O)[C@H](C)O1 [DOX, doxorubicin]
[2]
  induction of apoptosis (Annexin V-FITC/PI, in words): induce apoptosis
